What was measured:
[1] = DRUGMATRIX: Glutamate, AMPA radioligand binding (ligand: [3H] AMPA); assay type: cell membranes, Rattus norvegicus, Wistar, Cerebral cortex, Membrane; details: Not Active = under 50% inhibition at 10 µM
D(4) dopamine receptor = biological target: T1, D(4) dopamine receptor (Homo sapiens, UniProt P21917); assay: DRUGMATRIX: Dopamine D4.2 radioligand binding (ligand: [3H] Spiperone); assay type: cell membranes, CHO-K1, Membrane; details: cho-k1; Not Active = under 50% inhibition at 10 µM
T1 sequence (P21917 whole entry): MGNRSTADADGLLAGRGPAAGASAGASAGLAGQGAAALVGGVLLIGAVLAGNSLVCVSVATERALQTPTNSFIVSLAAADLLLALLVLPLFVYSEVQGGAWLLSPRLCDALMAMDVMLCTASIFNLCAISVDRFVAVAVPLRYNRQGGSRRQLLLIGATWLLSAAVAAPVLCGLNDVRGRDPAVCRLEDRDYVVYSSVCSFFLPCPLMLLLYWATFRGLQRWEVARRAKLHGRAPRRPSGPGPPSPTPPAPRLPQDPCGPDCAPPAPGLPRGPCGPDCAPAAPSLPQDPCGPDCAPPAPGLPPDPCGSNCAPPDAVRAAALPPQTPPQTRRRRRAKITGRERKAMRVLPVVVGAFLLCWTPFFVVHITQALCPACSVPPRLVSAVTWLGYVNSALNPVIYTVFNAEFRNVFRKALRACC

Insulin receptor = Insulin receptor (Rattus norvegicus, UniProt P15127); assay type: cell membranes, Wistar, Liver, Membrane; further: in other assays of this panel Not Active means under 50% inhibition at 10 µM
Mu-type opioid receptor = Mu-type opioid receptor (Homo sapiens, UniProt P35372); assay: DRUGMATRIX: Opiate mu (OP3, MOP) radioligand binding (ligand: [3H] Diprenorphine); assay type: cell membranes, CHO-K1, Membrane; details: Not Active = under 50% inhibition at 10 µM
[2] = biological target: T2, Muscarinic acetylcholine receptor M4 (Homo sapiens, UniProt P08173); assay type: cell membranes, CHO-K1, Membrane; details: cho-k1; further: in other assays of this panel Not Active means under 50% inhibition at 10 µM
T2 sequence (P08173 whole entry): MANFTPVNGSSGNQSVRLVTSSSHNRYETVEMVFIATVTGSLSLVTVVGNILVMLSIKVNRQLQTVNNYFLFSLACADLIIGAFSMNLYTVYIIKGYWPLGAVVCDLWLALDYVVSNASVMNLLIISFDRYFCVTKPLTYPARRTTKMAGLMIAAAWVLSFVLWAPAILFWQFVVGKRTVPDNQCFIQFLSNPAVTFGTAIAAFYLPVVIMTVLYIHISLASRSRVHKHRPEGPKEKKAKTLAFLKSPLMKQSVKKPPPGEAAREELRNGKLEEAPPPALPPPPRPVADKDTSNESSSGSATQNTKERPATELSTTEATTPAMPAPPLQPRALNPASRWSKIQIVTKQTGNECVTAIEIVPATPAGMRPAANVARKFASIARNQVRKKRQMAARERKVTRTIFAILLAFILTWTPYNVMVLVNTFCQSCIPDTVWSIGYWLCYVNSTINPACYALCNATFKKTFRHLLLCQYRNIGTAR

Cytochrome P450 3A4 = Cytochrome P450 3A4 (Homo sapiens, UniProt P08684); details: bti-tn-5b1-4; further: in other assays of this panel Not Active means under 50% inhibition at 10 µM
[3] = biological target: Voltage-gated inwardly rectifying potassium channel KCNH2 (Homo sapiens, UniProt Q12809); details: hek293; further: in other assays of this panel Not Active means under 50% inhibition at 10 µM
[4] = DRUGMATRIX: Serotonin (5-Hydroxytryptamine) 5-HT3 radioligand binding (ligand: [3H] GR-65630); assay type: cell membranes, Membrane; details: hek293; Not Active = under 50% inhibition at 10 µM

Sequence of Voltage-gated inwardly rectifying potassium channel KCNH2 (Q12809 whole entry): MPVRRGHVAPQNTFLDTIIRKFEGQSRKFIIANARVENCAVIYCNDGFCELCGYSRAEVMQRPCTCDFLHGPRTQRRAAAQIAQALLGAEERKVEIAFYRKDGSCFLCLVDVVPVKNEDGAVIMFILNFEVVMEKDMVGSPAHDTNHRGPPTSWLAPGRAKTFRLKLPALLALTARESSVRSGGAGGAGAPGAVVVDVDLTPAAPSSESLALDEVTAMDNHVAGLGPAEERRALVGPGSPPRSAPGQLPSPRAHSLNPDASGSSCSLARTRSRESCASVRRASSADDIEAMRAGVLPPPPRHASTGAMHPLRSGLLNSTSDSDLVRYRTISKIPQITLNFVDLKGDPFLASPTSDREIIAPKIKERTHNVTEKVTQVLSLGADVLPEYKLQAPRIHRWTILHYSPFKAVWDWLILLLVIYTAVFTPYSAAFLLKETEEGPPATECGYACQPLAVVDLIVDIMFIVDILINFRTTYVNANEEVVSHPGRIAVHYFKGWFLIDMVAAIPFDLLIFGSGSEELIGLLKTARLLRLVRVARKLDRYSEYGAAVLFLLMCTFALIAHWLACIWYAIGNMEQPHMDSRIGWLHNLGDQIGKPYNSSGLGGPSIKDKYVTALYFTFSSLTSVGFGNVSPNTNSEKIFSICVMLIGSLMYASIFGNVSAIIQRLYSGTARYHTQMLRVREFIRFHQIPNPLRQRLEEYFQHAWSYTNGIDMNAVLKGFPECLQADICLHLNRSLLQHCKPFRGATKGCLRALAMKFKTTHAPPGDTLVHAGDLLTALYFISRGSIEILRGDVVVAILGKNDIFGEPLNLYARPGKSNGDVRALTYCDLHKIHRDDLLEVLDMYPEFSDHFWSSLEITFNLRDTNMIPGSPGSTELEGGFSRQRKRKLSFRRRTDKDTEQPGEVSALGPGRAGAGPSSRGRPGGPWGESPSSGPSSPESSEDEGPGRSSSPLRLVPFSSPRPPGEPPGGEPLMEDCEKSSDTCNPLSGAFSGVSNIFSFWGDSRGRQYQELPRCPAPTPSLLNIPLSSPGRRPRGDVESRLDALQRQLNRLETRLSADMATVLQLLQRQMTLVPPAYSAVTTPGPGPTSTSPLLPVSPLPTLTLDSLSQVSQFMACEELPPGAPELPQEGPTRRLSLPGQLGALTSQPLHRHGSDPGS
Sequence of Cytochrome P450 3A4 (P08684 whole entry): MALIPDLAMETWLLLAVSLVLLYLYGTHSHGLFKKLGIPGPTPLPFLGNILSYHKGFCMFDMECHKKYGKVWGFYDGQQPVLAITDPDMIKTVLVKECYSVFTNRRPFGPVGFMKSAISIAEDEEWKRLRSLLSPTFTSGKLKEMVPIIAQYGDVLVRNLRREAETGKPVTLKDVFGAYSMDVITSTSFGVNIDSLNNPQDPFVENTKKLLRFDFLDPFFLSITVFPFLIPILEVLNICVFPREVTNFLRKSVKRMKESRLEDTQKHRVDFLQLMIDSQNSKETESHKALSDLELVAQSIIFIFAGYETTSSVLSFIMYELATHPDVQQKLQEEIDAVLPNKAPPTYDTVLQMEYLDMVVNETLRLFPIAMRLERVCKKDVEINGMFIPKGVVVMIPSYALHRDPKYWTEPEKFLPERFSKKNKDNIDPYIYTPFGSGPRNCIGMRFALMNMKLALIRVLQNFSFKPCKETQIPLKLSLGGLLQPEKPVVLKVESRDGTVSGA
Sequence of Insulin receptor (P15127 27-759 limits assumed): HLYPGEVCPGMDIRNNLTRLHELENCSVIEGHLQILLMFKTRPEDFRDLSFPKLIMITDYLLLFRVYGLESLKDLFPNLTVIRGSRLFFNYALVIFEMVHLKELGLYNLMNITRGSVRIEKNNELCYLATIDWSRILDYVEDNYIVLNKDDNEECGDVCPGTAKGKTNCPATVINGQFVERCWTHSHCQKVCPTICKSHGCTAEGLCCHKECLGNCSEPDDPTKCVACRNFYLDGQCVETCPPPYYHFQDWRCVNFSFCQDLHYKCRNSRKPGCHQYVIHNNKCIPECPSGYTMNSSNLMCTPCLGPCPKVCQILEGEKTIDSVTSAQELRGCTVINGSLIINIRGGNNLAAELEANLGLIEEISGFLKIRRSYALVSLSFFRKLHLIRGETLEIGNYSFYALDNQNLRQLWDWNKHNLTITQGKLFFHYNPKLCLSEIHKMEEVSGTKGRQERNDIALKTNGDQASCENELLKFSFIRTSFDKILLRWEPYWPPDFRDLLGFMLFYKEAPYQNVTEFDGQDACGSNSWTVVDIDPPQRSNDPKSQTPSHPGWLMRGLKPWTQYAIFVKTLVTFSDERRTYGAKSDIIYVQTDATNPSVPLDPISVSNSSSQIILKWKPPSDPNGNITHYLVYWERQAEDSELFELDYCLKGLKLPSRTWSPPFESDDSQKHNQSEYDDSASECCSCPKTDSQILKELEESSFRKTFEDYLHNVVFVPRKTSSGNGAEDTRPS
Sequence of Insulin receptor (P15127 764-1383 limits assumed): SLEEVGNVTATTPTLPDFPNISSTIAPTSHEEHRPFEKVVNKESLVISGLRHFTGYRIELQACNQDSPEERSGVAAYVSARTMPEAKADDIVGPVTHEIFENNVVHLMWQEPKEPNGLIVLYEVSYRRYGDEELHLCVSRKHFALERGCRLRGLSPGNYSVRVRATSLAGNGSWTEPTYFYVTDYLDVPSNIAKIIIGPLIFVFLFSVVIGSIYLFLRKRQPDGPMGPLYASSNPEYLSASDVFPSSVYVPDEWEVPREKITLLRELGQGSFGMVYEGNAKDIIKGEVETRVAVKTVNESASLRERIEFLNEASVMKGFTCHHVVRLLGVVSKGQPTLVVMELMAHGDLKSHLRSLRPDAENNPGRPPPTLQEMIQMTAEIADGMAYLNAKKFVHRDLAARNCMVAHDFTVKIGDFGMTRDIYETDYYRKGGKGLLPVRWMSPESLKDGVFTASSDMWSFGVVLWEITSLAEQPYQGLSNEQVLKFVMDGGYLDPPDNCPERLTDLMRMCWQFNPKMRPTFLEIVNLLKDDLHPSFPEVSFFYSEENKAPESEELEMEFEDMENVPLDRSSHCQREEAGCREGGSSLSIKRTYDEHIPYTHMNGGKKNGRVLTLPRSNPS
Sequence of Mu-type opioid receptor (P35372 whole entry): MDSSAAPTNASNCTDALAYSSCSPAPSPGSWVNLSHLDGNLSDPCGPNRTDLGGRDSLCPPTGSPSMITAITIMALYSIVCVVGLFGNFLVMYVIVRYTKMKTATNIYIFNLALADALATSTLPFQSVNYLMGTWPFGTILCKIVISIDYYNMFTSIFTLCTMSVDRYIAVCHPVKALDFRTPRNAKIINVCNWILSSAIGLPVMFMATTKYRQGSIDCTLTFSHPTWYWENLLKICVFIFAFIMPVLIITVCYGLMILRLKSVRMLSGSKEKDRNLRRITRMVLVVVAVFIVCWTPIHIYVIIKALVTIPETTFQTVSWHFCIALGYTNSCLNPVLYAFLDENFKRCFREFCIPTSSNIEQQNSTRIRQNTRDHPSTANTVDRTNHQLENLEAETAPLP

SMILES	IC50 [1]	Ki [1]	IC50 (D(4) dopamine receptor)	IC50 (Insulin receptor)	IC50 (Mu-type opioid receptor; cho-k1)	IC50 [2]	IC50 (Cytochrome P450 3A4)	Ki (Cytochrome P450 3A4)	IC50 [3]	Ki [3]	IC50 [4]	Ki [4]	Ki (Mu-type opioid receptor) [µM]	IC50 (Mu-type opioid receptor; read-out: IC50) [µM]
Oc1ccccc1O [CATECHOL]	Not Active	Not Active	Not Active	Not Active	Not Active	Not Active	Not Active	Not Active	Not Active	Not Active	Not Active	Not Active	–	–
CC(C)(CO)C(O)C(=O)NCCCO (configuration not stated) [PANTHENOL]	Not Active	Not Active	Not Active	Not Active	Not Active	Not Active	Not Active	Not Active	Not Active	Not Active	Not Active	Not Active	–	–
NC(=O)N1c2ccccc2C=Cc2ccccc21 [CARBAMAZEPINE]	Not Active	Not Active	Not Active	Not Active	Not Active	Not Active	Not Active	Not Active	Not Active	Not Active	Not Active	Not Active	–	–
CN(Cc1cnc2nc(N)nc(N)c2n1)c1ccc(C(=O)N[C@@H](CCC(=O)O)C(=O)O)cc1 [METHOTREXATE]	Not Active	Not Active	Not Active	Not Active	Not Active	Not Active	Not Active	Not Active	Not Active	Not Active	Not Active	Not Active	–	–
O=P1(N(CCCl)CCCl)NCCCO1 (configuration not stated) [CYCLOPHOSPHAMIDE ANHYDROUS]	Not Active	Not Active	Not Active	Not Active	Not Active	Not Active	Not Active	Not Active	Not Active	Not Active	Not Active	Not Active	–	–
C[C@]12CCC(=O)C=C1CC[C@@H]1[C@@H]2[C@@H](O)C[C@@]2(C)[C@H]1CC[C@]2(O)C(=O)CO [HYDROCORTISONE]	Not Active	Not Active	Not Active	Not Active	Not Active	Not Active	Not Active	Not Active	Not Active	Not Active	Not Active	Not Active	–	–
Cc1cccc(Nc2ccccc2C(=O)O)c1C [MEFENAMIC ACID]	Not Active	Not Active	Not Active	Not Active	Not Active	Not Active	Not Active	Not Active	Not Active	Not Active	Not Active	Not Active	–	–
CCn1cc(C(=O)O)c(=O)c2cc(F)c(N3CCNCC3)nc21 [ENOXACIN]	Not Active	Not Active	Not Active	Not Active	Not Active	Not Active	Not Active	Not Active	Not Active	Not Active	Not Active	Not Active	–	–
Cc1c(N(C)CS(=O)(=O)[O-])c(=O)n(-c2ccccc2)n1C.[Na+] [DIPYRONE SODIUM]	Not Active	Not Active	Not Active	Not Active	Not Active	Not Active	Not Active	Not Active	Not Active	Not Active	Not Active	Not Active	–	–
C#C[C@]1(O)CC[C@H]2[C@@H]3CCC4=Cc5oncc5C[C@]4(C)[C@H]3CC[C@@]21C [DANAZOL]	Not Active	Not Active	Not Active	Not Active	–	Not Active	Not Active	Not Active	Not Active	Not Active	Not Active	Not Active	5.72	14.1
CC(=O)O[C@]1(C(C)=O)CC[C@H]2[C@@H]3C=C(C)C4=CC(=O)CC[C@]4(C)[C@H]3CC[C@@]21C [MEGESTROL ACETATE]	Not Active	Not Active	Not Active	Not Active	Not Active	Not Active	Not Active	Not Active	Not Active	Not Active	Not Active	Not Active	–	–
CCOC(=O)n1ccn(C)c1=S [CARBIMAZOLE]	Not Active	Not Active	Not Active	Not Active	Not Active	Not Active	Not Active	Not Active	Not Active	Not Active	Not Active	Not Active	–	–
NC[C@H]1O[C@H](O[C@H]2[C@H](O)[C@@H](O[C@H]3O[C@H](CO)[C@@H](O)[C@H](N)[C@H]3O)[C@H](N)C[C@@H]2N)[C@H](O)[C@@H](O)[C@@H]1O [KANAMYCIN]	Not Active	Not Active	Not Active	Not Active	Not Active	Not Active	Not Active	Not Active	Not Active	Not Active	Not Active	Not Active	–	–
COc1cc(CNC(=O)CCCC/C=C/C(C)C)ccc1O [CAPSAICIN]	Not Active	Not Active	Not Active	Not Active	Not Active	Not Active	Not Active	Not Active	Not Active	Not Active	Not Active	Not Active	–	–
C[C@H](C(=O)O)c1cccc(C(=O)c2ccccc2)c1 [DEXKETOPROFEN]	Not Active	Not Active	Not Active	Not Active	Not Active	Not Active	Not Active	Not Active	Not Active	Not Active	Not Active	Not Active	–	–
NC[C@@H]1O[C@H](O[C@H]2[C@@H](O)[C@H](O[C@@H]3[C@@H](O)[C@H](N)C[C@H](N)[C@H]3O[C@H]3O[C@H](CN)[C@@H](O)[C@H](O)[C@H]3N)O[C@@H]2CO)[C@H](N)[C@@H](O)[C@@H]1O [FRAMYCETIN]	Not Active	Not Active	Not Active	Not Active	Not Active	Not Active	Not Active	Not Active	Not Active	Not Active	Not Active	Not Active	–	–
C[C@]12C/C(=C/O)C(=O)C[C@@H]1CC[C@@H]1[C@@H]2CC[C@@]2(C)[C@H]1CC[C@]2(C)O [OXYMETHOLONE]	Not Active	Not Active	Not Active	Not Active	Not Active	Not Active	Not Active	Not Active	Not Active	Not Active	Not Active	Not Active	–	–
CCOC(=O)[C@H](CCc1ccccc1)N[C@@H](C)C(=O)N1Cc2ccccc2C[C@H]1C(=O)O	Not Active	Not Active	Not Active	Not Active	Not Active	Not Active	Not Active	Not Active	Not Active	Not Active	Not Active	Not Active	–	–

Source: ChEMBL document CHEMBL1909046, “DrugMatrix in vitro pharmacology data”
